According to PMC3404088, “Development of a Small D-Enantiomeric Alzheimer’s Amyloid-β Binding Peptide Ligand for Future In Vivo Imaging Applications” (PLoS ONE, 2012):
Square brackets hold non-standard residues; d marks the D form. Peptide text beside a SMILES is read from it. * marks the point of attachment. 5FAM = O=C1OC2(c3ccc(O)cc3Oc3cc(O)ccc32)c2ccc(C(=O)*)cc21

Experiment: Analysis of ACI-80 stability: N-terminal glutamine vs pyroglutamate content by HPLC/ESI-MS
Format: physicochemical
Conditions: aqueous solution
Procedure: In solution, N-terminal glutamine peptides such as D1 are prone to convert into N-terminal pyroglutamate species: Gln-SHYRHISPAQV → Pyr-SHYRHISPAQV. Therefore, the stability of solid ACI-80, solid ACI-80-Kϕ (ϕ: fluorescein isothiocyanate, covalently linked to the peptide via a lysine (K)) and [^127I]-ACI-80 in solution was investigated by JPT Peptide Technologies GmbH, Berlin, Germany using HPLC/ESI-MS whereby the relative content of N-terminal Gln peptide and N-terminal Pyr peptide was assessed.
An important observation during initial compound stability characterization experiments was the partial conversion of the N-terminal glutamine of [^127I]-ACI-80 into pyro-glutamate. It is known that peptides with an N-terminal glutamine are prone to conversion of this residue into a pyroglutamate. Therefore, the composition of freshly synthesized and untreated ACI-80 and ACI-80-Kϕ as well as [^127I]-ACI-80 after iodination were investigated. […] It was observed that freshly synthesized ACI-80 and ACI-80-Kϕ contained only minor fractions of pyroglutamic acid while about one third of [^127I]-ACI-80 in solution already converted into N-terminal pyroglutamate species.

| stability in aqueous solution | SMILES |
| --- | --- |
| stable in aqueous solution | CC[C@@H](C)[C@@H](NC(=O)[C@@H](Cc1c[nH]cn1)NC(=O)[C@@H](CCCNC(=N)N)NC(=O)[C@@H](Cc1ccc(O)cc1)NC(=O)[C@@H](Cc1c[nH]cn1)NC(=O)[C@@H](CO)NC(=O)[C@H](N)CCC(N)=O)C(=O)N[C@H](CO)C(=O)N1CCC[C@@H]1C(=O)N[C@H](C)C(=O)N[C@H](CCC(N)=O)C(=O)N[C@H](CCCCN)C(=O)N[C@H](CCCCNC(=O)c1ccc2c(c1)C(=O)OC21c2ccc(O)cc2Oc2cc(O)ccc21)C(=O)O [ACI-87-Kϕ] (H-[dQ][dS][dH][dY][dR][dH][dI][dS][dP][dA][dQ][dK][dK](5FAM)-OH; N-terminus and C-terminus assumed) |
| stable in aqueous solution | CC[C@@H](C)[C@@H](NC(=O)[C@@H](Cc1c[nH]cn1)NC(=O)[C@@H](CCCNC(=N)N)NC(=O)[C@@H](Cc1ccc(O)cc1)NC(=O)[C@@H](Cc1c[nH]cn1)NC(=O)[C@H](N)CO)C(=O)N[C@H](CO)C(=O)N1CCC[C@@H]1C(=O)N[C@H](C)C(=O)N[C@H](CCC(N)=O)C(=O)N[C@H](CCCCN)C(=O)N[C@H](CCCCNC(=O)c1ccc2c(c1)C(=O)OC21c2ccc(O)cc2Oc2cc(O)ccc21)C(=O)O [ACI-88-Kϕ] (H-[dS][dH][dY][dR][dH][dI][dS][dP][dA][dQ][dK][dK](5FAM)-OH; N-terminus and C-terminus assumed) |
| stable in aqueous solution | CC[C@@H](C)[C@@H](NC(=O)[C@@H](Cc1c[nH]cn1)NC(=O)[C@@H](CCCNC(=N)N)NC(=O)[C@@H](Cc1ccc(O)cc1)NC(=O)[C@@H](Cc1c[nH]cn1)NC(=O)[C@@H](CO)NC(=O)[C@H]1CCCN1)C(=O)N[C@H](CO)C(=O)N1CCC[C@@H]1C(=O)N[C@H](C)C(=O)N[C@H](CCC(N)=O)C(=O)N[C@H](CCCCN)C(=O)N[C@H](CCCCNC(=O)c1ccc2c(c1)C(=O)OC21c2ccc(O)cc2Oc2cc(O)ccc21)C(=O)O [ACI-89-Kϕ] (H-[dP][dS][dH][dY][dR][dH][dI][dS][dP][dA][dQ][dK][dK](5FAM)-OH; N-terminus and C-terminus assumed) |
